Data set [1] can be described thus: Test Example 1. Solubility Test. The note with it: thermodynamic from solid, shaken at 37° C. for 2 hours, mean of two measurements, read-out: Solubility of Compound A. The format is physicochemical. The procedure:
5 mL of a first fluid (pH1.2) or 5 mL of a […] for an elution test in Japanese Pharmacopoeia was added to the solid dispersions of Example 1 and Comparative Examples 1 to 8, and the sample of Comparative Example 9, the solid dispersions were ground using a glass rod or a spatula, and then shaken at 37° C. for 2 hours. 400 μL of a mixed solution (acetonitrile/water=3/2) was immediately added to 600 μL of the sample solution filtered off using a 0.45 μm filter, and a concentration of the compound A in the sample solution was measured by HPLC (Shimadzu Corporation). Here, values in the table are the mean values obtained by repeating measurements twice.

Data set [2] in a line: Test Example 2. Absorbability of the solid dispersion containing the compound A in rats. It counts as in vivo. The note with it: male, Crl:CD (SD), rat, plasma, po, 30 mg/kg, single dose 30 mg/kg as compound A, mean ± SD n=3. On the procedure:
A single dose of 10 mg/kg or 30 mg/kg, as the compound A, of the solid dispersions of Example 2 and Comparative Example 10, and the sample of Comparative Example 11 suspended in a 1% carboxymethylcellulose aqueous solution was orally administered to fasted male rats (8 weeks old, Crl:CD (SD), Japan Charles River Laboratories). A crystalline form of the compound A was used as a control (Comparative Example 12). A collection time was 0.5, 1, 2, 4, 8, and 24 hours after administration, and about 300 μL of blood was collected at each time point from vena caudalis (n=3). The obtained blood was centrifuged at 1500×g, 4° C. for 15 minutes to obtain a plasma. The concentration of the compound A in the plasma was measured by HPLC (Shiseido and Hitachi High-Technologies Corporation). A time to reach the highest concentration in the plasma (Tmax), the highest concentration in the plasma (Cmax) and an area under the plasma concentration-time curve (AUC) were calculated from the change in the concentration in the obtained plasma. Here, values in the table are the mean value±standard deviation of three examples.

For 2 compounds, solubility and Tmax results are on record in US11234984B2, “Solid dispersion” (Shizuoka Prefectural University Corporation, priority 2017, dated 2022).

A word on the solubility: it is how much of the substance goes into solution per volume. Broadly, the Tmax is the time at which the peak concentration occurs.

≈ marks a conversion by molar mass, not a printed value. Read-outs that look alike come from different tables or passages of the source.

As to `N#Cc1cc(-c2nc3c(O)ncnc3s2)ccc1Oc1ccccc1` [Comparative Example 9, 2-(3-cyano-4-phenoxyphenyl)-7-hydroxythiazolo[5,4-d]pyrimidine], the solubility at 2 h in data set [1] (pH 1.2, simulated gastric fluid, First fluid for dissolution test (pH1.2)) is 0.39 µg/mL (≈ 1.13 µM); in data set [1] (pH 6.8, aqueous buffer, Second fluid for dissolution test (pH6.8)), 0.49 µg/mL (≈ 1.41 µM).

On to `N#Cc1cc(-c2nc3c(O)ncnc3s2)ccc1Oc1ccccc1` [Comparative Example 11, 2-(3-cyano-4-phenoxyphenyl)-7-hydroxythiazolo[5,4-d]pyrimidine], for which, in data set [2], the Tmax came out at 3.7 ± 3.8 h.
